Measurements published in patent US20250129088A1, “CEREBLON E3 UBIQUITIN LIGASE INHIBITOR” (Gan & Lee Pharmaceuticals Co., Ltd., priority 2022, published 2025).

Assays:
Format in all cases: cell-based
K562 cells = experiment: K562 cell proliferation inhibition, CCK-8; settings: K562, 4 days, Table 12, positive control dBET6
Description: The complete medium required for K562 cells is IMDM (ATCC, Product number: 30-2005) basal medium containing 10% fetal bovine serum. K562 cells were seeded in a 96-well plate at a density of 7,500 cells/well, and different concentrations of the compound of the present invention and positive control samples Alisertib (source: Bide Pharmaceuticals) and dBET6 (source: Bide Pharmaceuticals) were prepared to treat the cells. The cells were incubated at a 37° C., 5% CO2 cell culture incubator for 4 days.
Cell viability was detected using the CCK-8 kit (Beyotime, Product number: C0040) according to the manufacturer's instructions. According to the inhibition rate, GraphPad Prism software was used to calculate the IC50 value of each compound for 4 days, and the results are shown in Table 11-12.

VCaP cells = experiment: VCaP cell proliferation inhibition, CCK-8; settings: Homo sapiens, 168 h, 7 days
Source text: The complete medium required for VCaP cells is DMEM high glucose (Gibco, Product number: 11995-065) basal medium containing 10% fetal bovine serum. […] Cell viability was detected using the CCK-8 kit (Beyotime, Product number: C0040) according to the manufacturer's instructions.

LNCaP FGC cells = experiment: LNCaP FGC cell proliferation inhibition, CCK-8; settings: Homo sapiens, 96 h, 4 days
Source text: The complete medium required for LNCaP FGC cells is RPMI 1640 (ATCC, Product number: 30-2001) basal medium containing 10% fetal calf serum. […] Cell viability was detected using the CCK-8 kit (Beyotime, Product number: C0040) according to the manufacturer's instructions.

Row | IC50 (K562 cells; Homo sapiens, 96 h) [µM] | IC50 (K562 cells) [µM] | SMILES | IC50 (VCaP cells) [µM] | IC50 (LNCaP FGC cells) [µM]
1 | 0.066 | – | Cc1nc(Nc2ncc(C(=O)Nc3c(C)cccc3Cl)s2)cc(N2CCN(CCOCCC(=O)N3CC4(CCc5cc6c(cc5O4)C(=O)N(C4CCC(=O)NC4=O)C6=O)C3)CC2)n1 (centres unmarked) [PROTAC 11, N-(2-chloro-6-methylphenyl)-2-((6-(4-(2-(3-(7′-(2,6-dioxopiperidin-3-yl)-6′,8′-dioxo-4′,6′,7′,8′-tetrahydro-3′H-spiro[azetidine-3,2′-pyrano[2,3-f]isoindol]-1-yl)-3-oxopropoxy)ethyl)piperazin-1-yl)-2-methylpyrimidin-4-yl)amino)thiazole-5-carboxamide] | – | –
2 | 0.02 | – | Cc1nc(Nc2ncc(C(=O)Nc3c(C)cccc3Cl)s2)cc(N2CCN(CCOCCC(=O)N3CCC4(CCc5cc6c(cc5O4)C(=O)N(C4CCC(=O)NC4=O)C6)CC3)CC2)n1 (centres unmarked) [PROTAC 13, N-(2-chloro-6-methylphenyl)-2-((6-(4-(2-(3-(7′-(2,6-dioxopiperidin-3-yl)-8′-oxo-4′,6′,7′,8′-tetrahydro-3′H-spiro[piperidine-4,2′-pyrano[2,3-f]isoindole]-1-yl)-3-oxopropoxy)ethyl)piperazin-1-yl)-2-methylpyrimidin-4-yl)amino)thiazole-5-carboxamide] | – | –
3 | 0.057 | – | Cc1nc(Nc2ncc(C(=O)Nc3c(C)cccc3Cl)s2)cc(N2CCN(CCOCCC(=O)N3CC4(CCc5cc6c(cc5O4)C(=O)N(C4CCC(=O)NC4=O)C6)C3)CC2)n1 (centres unmarked) [PROTAC 14, N-(2-chloro-6-methylphenyl)-2-((6-(4-(2-(3-(7′-(2,6-dioxopiperidin-3-yl)-8′-oxo-4′,6′,7′,8′-tetrahydro-3′H-spiro[azetidine-3,2′-pyrano[2,3-f]isoindol]-1-yl)-3-oxopropoxy)ethyl)piperazin-1-yl)-2-methylpyrimidin-4-yl)amino)thiazole-5-carboxamide] | – | –
4 | 0.005 | – | Cc1nc(Nc2ncc(C(=O)Nc3c(C)cccc3Cl)s2)cc(N2CCN(CCOCCC(=O)N3CCC4(CC3)COc3cc5c(cc3O4)CN(C3CCC(=O)NC3=O)C5=O)CC2)n1 (centres unmarked) [PROTAC 15, N-(2-chloro-6-methylphenyl)-2-((6-(4-(2-(3-(7′-(2,6-dioxopiperidin-3-yl)-6′-oxo-7′,8′-dihydro-3′H,6′H-spiro[piperidine-4,2′-[1,4]dioxino[2,3-f]isoindol]-1-yl)-3-oxopropoxy)ethyl)piperazin-1-yl)-2-methylpyrimidin-4-yl)amino)thiazole-5-carboxamide] | – | –
5 | 0.048 | – | Cc1nc(Nc2ncc(C(=O)Nc3c(C)cccc3Cl)s2)cc(N2CCN(CCOCCC(=O)N3CC4(CCc5cc6c(cc5O4)CN(C4CCC(=O)NC4=O)C6=O)C3)CC2)n1 (centres unmarked) [PROTAC 16, N-(2-chloro-6-methylphenyl)-2-((6-(4-(2-(3-(7′-(2,6-dioxopiperidin-3-yl)-6′-oxo-4′,6′,7′,8′-tetrahydro-3′H-spiro[azetidine-3,2′-pyrano[2,3-f]isoindole]-1-yl)-3-oxopropoxy)ethyl)piperazin-1-yl)-2-methylpyrimidin-4-yl)amino)thiazole-5-carboxamide] | – | –
6 | – | – | CC1(C)C(=O)N(c2ccc(C#N)c(C(F)(F)F)c2)C(=S)N1c1ccc(C(=O)N2CC[C@@H](CN3CCC4(CC3)COc3cc5c(cc3C4)C(=O)N(C3CCC(=O)NC3=O)C5=O)C2)c(F)c1 (stereo partly drawn) [PROTAC 70, 4-(3-(4-((3S)-3-((7′-(2,6-dioxopiperidin-3-yl)-6′,8′-dioxo-4′,6′,7′,8′-tetrahydro-2′H-spiro[piperidine-4,3′-pyrano[2,3-f]isoindole]-1-yl)methyl)pyrrolidine-1-carbonyl)-3-fluorophenyl)-4,4-dimethyl-5-oxo-2-thioimidazolidin-1-yl)-2-(trifluoromethyl)benzonitrile] | 9.73 | 7.06
7 | – | – | CC1(C)C(=O)N(c2ccc(C#N)c(C(F)(F)F)c2)C(=S)N1c1ccc(C(=O)N2CCC(CN3CCC4(CCc5cc6c(cc5O4)CN(C4CCC(=O)NC4=O)C6=O)CC3)CC2)c(F)c1 (centres unmarked) [PROTAC 72] | 7.4 | 5.34
8 | – | – | CC1(C)C(=O)N(c2ccc(C#N)c(C(F)(F)F)c2)C(=S)N1c1ccc(C(=O)N2CC3(CCC(N4CCC5(CC4)COc4cc6c(cc4C5)C(=O)N(C4CCC(=O)NC4=O)C6=O)CC3)C2)c(F)c1 (centres unmarked) [PROTAC 73, 4-(3-(4-(7-(7′-(2,6-dioxopiperidin-3-yl)-6′,8′-dioxo-4′,6′,7′,8′-tetrahydro-2′H-spiro[piperidin-4,3′-pyrano[2,3-f]isoindol]-1-yl)-2-azaspiro[3.5]nonane-2-carbonyl)-3-fluorophenyl)-4,4-dimethyl-5-oxo-2-thioimidazolidin-1-yl)-2-(trifluoromethyl)benzonitrile] | 2.49 | 4.53
9 | – | – | CC1(C)C(=O)N(c2ccc(C#N)c(C(F)(F)F)c2)C(=S)N1c1ccc(C(=O)N2CCC3(CCC(N4CCC5(CC4)COc4cc6c(cc4C5)C(=O)N(C4CCC(=O)NC4=O)C6=O)CC3)C2)c(F)c1 (centres unmarked) [PROTAC 74, 4-(3-(4-(8-(7′-(2,6-dioxopiperidin-3-yl)-6′ 8′-dioxo-4′,6′,7′,8′-tetrahydro-2′H-spiro[piperidin-4,3′-pyrano[2,3-f]isoindol]-1-yl)-2-azaspiro[4.5]decane-2-carbonyl)-3-fluorophenyl)-4,4-dimethyl-5-oxo-2-thioimidazolidin-1-yl)-2-(trifluoromethyl)benzonitrile] | 3.26 | 2.66
10 | – | – | COC1(CN2CC3(COc4cc5c(cc4C3)C(=O)N(C3CCC(=O)NC3=O)C5=O)C2)CCN(C(=O)c2ccc(N3C(=S)N(c4ccc(C#N)c(C(F)(F)F)c4)C(=O)C3(C)C)cc2F)CC1 (centres unmarked) [PROTAC 75] | 0.17 | 0.53
11 | – | – | COC1(CN2CC3(CCc4cc5c(cc4O3)CN(C3CCC(=O)NC3=O)C5=O)C2)CCN(C(=O)c2ccc(N3C(=S)N(c4ccc(C#N)c(C(F)(F)F)c4)C(=O)C3(C)C)cc2F)CC1 (centres unmarked) [PROTAC 76] | 0.35 | 3.24
12 | – | – | CC1(C)C(=O)N(c2ccc(C#N)c(C(F)(F)F)c2)C(=S)N1c1ccc(C(=O)N2CC(N3CC4(CCc5cc6c(cc5O4)C(=O)N(C4CCC(=O)NC4=O)C6=O)C3)C2)c(F)c1 (centres unmarked) [PROTAC 77, 4-(3-(4-(3-(7′-(2,6-dioxopiperidin-3-yl)-6′,8′-dioxo-4′,6′,7′,8′-tetrahydro-3′H-spiro [azetidine-3,2′-pyrano[2,3-f]isoindole]-1-yl)azetidine-1-carbonyl)-3-fluorophenyl)-4,4-dimethyl-5-oxo-2-thioimidazolidin-1-yl)-2-(trifluoromethyl)benzonitrile] | 2.03 | 6.45
13 | – | – | CC1(C)C(=O)N(c2ccc(C#N)c(C(F)(F)F)c2)C(=S)N1c1ccc(C(=O)N2CCC(N3CCC4(CC3)COc3cc5c(cc34)C(=O)N(C3CCC(=O)NC3=O)C5=O)CC2)c(F)c1 (centres unmarked) [PROTAC 80, 4-(3-(4-(4-(6-(2,6-dioxopiperidin-3-yl)-5,7-dioxo-6,7-dihydro-2H,5H-spiro[furo[2,3-f]isoindole-3,4′-piperidin]-1′-yl)piperidine-1-carbonyl)-3-fluorophenyl)-4,4-dimethyl-5-oxo-2-thioimidazolidin-1-yl)-2-(trifluoromethyl)benzonitrile] | 9.48 | 3.24
14 | – | – | CC1(C)C(=O)N(c2ccc(C#N)c(C(F)(F)F)c2)C(=S)N1c1ccc(C(=O)N2CCC3(CCC(N4CCC5(CCc6cc7c(cc6O5)C(=O)N(C5CCC(=O)NC5=O)C7=O)CC4)CC3)CC2)c(F)c1 (centres unmarked) [PROTAC 83, 4-(3-(4-(9-(7′-(2,6-dioxopiperidin-3-yl)-6′,8′-dioxo-4′,6′,7′,8′-tetrahydro-3′H-spiro[piperidine-4,2′-pyrano[2,3-f]isoindol]-1-yl)-3-azaspiro[5.5]undecane-3-carbonyl)-3-fluorophenyl)-4,4-dimethyl-5-oxo-2-thioimidazolidin-1-yl)-2-(trifluoromethyl)benzonitrile] | 0.89 | 2.63
15 | – | – | CC1(C)C(=O)N(c2ccc(C#N)c(C(F)(F)F)c2)C(=S)N1c1ccc(C(=O)N2CC3(CC(N4CCC5(CCc6cc7c(cc6O5)C(=O)N(C5CCC(=O)NC5=O)C7=O)CC4)C3)C2)c(F)c1 (centres unmarked) [PROTAC 85, 4-(3-(4-(6-(7′-(2,6-dioxopiperidin-3-yl)-6′,8′-dioxo-4′,6′,7′,8′-tetrahydro-3′H-spiro[piperidin-4,2′-pyrano[2,3-f]isoindol]-1-yl)-2-azaspiro[3.3]heptane-2-carbonyl)-3-fluorophenyl)-4,4-dimethyl-5-oxo-2-thioimidazolidin-1-yl)-2-(trifluoromethyl)benzonitrile] | 0.62 | 27.9
16 | – | 0.001 | Cc1sc2c(c1C)C(c1ccc(Cl)cc1)=N[C@@H](CC(=O)NCCCCCCCCNC(=O)COc1cccc3c1C(=O)N(C1CCC(=O)NC1=O)C3=O)c1nnc(C)n1-2 (some centres unmarked) [dBET6, reference compound] | – | –
